Measured values taken from paper PMC12865225 (Clinical and Translational Science, 2026).

What was measured:
OATP1B1 = target: T1, OATP1B1 (Homo sapiens, UniProt Q9Y6L6); test: Uptake transport assay in OATP1B1-expressing HEK293 cells; assay type: cell-based; details: for transport by OATP1B1: 2 and 50 μM, 10 min
T1 construct: expressed in transfected cells; host or cells: HEK293 (recombinant baculovirus-mediated transduction)
T1 sequence (Q9Y6L6 1-691): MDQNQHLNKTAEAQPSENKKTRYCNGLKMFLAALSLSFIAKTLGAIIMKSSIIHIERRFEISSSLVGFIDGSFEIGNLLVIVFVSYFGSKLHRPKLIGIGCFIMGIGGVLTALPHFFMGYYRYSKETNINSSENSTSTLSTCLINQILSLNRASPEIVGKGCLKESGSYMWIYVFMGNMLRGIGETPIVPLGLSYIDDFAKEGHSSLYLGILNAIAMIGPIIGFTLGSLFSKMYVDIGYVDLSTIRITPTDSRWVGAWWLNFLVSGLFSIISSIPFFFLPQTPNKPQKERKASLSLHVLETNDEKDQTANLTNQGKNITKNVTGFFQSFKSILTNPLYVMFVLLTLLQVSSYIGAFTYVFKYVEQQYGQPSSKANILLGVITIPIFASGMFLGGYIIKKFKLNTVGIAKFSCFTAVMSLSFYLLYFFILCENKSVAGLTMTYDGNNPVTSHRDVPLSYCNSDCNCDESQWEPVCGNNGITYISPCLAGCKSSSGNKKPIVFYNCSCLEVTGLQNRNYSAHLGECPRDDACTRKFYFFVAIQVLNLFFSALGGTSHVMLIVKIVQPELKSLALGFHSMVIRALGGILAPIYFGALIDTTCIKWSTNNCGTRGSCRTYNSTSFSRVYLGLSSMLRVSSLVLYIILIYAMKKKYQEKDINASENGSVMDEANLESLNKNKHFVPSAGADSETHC
Description: (§1) The human transporters OATP1B1, OATP1B3, OATP2B1, and OAT1‐OAT4 and a negative control protein (enhanced yellow fluorescent protein, eYFP) were transiently expressed in human embryonic kidney 293 (HEK293) cells by recombinant baculovirus‐mediated transduction. Baculoviruses carrying human genes for the transporters were prepared as reported previously. HEK293 cells were cultured in DMEM containing 10% fetal bovine serum at 37°C and 5% CO2 and passaged two to three times per week. For the transport studies, 0.05 × 10^6 cells for 48‐well plates (OATPs) or 0.06 × 10^6 cells for 24‐well plates (OATs) were seeded onto cell‐culture treated well plates coated with poly‐D‐lysine. After 1 day, cells were transduced to produce recombinant proteins by changing media to DMEM containing 30 μL (48‐well plates) or 60 μL (24‐well plates) of recombinant baculovirus and 3 mM (OATs) or 5 mM (OATPs) sodium butyrate in a total media volume of 500 μL. The cells were cultured for a further 2 days before the transport assays.
(§2) For the transport studies, media were removed and cells were washed once with warm transport uptake buffer (TP‐buffer—pH 7.4 HBSS with 25 mM HEPES and 4 mM sodium bicarbonate). Each experiment included triplicate (OATP) or duplicate (OAT) samples for every test condition. The uptake was started by removing liquid from wells and applying warm TP‐buffer (200 μL for 24‐well plates or 125 μL for 48‐well plates) containing a test compound to cells. Transport assays were terminated after a pre‐specified incubation time (reported in figure legends) by removing substrate solution and washing cells three times with cold TP‐buffer (300 μL for 48‐well plates and 400 μL for 24‐well plates). For the liquid chromatography mass spectrometry (LC–MS) analysis, compounds were extracted from cells with 125 μL (48‐well plates) or 250 μL (24‐well plates) of an ultrapure‐water solution containing 75% methanol and 0.1% formic acid, shaking at 250 RPM for 30 min. […] Samples were transferred to well plates, centrifuged at 3000 g for 30 min, and transferred to a new well plate for the analysis.
(§3) Equation (2) (the Michaelis–Menten equation) was fit to the transport kinetic assay data. […] (2) Uptake=Vmax×S/Km+S

OAT3 = target: T2, OAT3 (Homo sapiens, UniProt Q8TCC7); test: Uptake transport assay in OAT3-expressing HEK293 cells; details: for transport by OAT3: 2 and 50 μM, 10 min; for Vmax (pmol/106 cells/min) OAT3: uptake, 2 min
T2 sequence (Q8TCC7 1-542): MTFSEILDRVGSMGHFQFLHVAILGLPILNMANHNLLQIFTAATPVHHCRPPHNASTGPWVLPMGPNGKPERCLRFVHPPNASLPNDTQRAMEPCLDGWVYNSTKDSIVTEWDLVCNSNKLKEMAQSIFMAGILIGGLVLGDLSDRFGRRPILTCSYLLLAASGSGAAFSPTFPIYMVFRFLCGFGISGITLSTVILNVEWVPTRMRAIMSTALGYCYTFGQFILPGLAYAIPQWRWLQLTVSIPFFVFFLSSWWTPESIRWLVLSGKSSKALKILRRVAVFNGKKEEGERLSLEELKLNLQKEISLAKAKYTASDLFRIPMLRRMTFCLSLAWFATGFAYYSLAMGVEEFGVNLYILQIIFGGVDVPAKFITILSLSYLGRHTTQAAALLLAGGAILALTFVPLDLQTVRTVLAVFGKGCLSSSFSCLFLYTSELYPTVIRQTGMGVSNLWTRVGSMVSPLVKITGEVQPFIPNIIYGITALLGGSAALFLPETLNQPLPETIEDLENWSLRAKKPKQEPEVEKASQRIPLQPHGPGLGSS
Description: as §1, §2, §3

OAT4 = target: T3, OAT4 (Homo sapiens, UniProt Q9NSA0); test: Uptake transport assay in OAT4-expressing HEK293 cells; assay type: cell-based; details: for transport by OAT4: 2 and 50 μM, 10 min; for Vmax (pmol/106 cells/min) OAT4: uptake, 2 min
T3 construct: expressed in transfected cells; host or cells: HEK293 (recombinant baculovirus-mediated transduction)
T3 sequence (Q9NSA0 1-550): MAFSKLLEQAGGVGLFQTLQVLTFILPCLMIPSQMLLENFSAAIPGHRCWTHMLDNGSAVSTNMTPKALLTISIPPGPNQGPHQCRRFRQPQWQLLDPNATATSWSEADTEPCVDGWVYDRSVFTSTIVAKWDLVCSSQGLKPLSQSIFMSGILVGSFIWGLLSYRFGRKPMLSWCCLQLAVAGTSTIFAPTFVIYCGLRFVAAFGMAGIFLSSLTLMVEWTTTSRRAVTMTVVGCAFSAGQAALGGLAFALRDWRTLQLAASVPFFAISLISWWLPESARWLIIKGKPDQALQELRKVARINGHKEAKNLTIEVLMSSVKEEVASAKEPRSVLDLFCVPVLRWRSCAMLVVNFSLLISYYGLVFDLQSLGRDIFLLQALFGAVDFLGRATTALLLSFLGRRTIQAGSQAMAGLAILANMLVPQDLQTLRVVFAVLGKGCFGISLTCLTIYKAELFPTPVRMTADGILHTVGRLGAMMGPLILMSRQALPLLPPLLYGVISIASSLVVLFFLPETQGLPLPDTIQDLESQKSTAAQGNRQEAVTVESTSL
Description: as §1, §2, §3

## Cc1onc(-c2c(F)cccc2Cl)c1C(=O)N[C@@H]1C(=O)N2[C@@H]1SC(C)(C)[C@@H]2C(=O)O [Flucloxacillin]
OATP1B1
  transport by OATP1B1: transported
OATP1B1; uptake, 2 min
  Km: 10 to 18 µM
  Vmax (pmol/106 cells/min) OATP1B1: 23.5 pmol/106 cells/min
OAT3
  transport by OAT3: transported
  Vmax (pmol/106 cells/min) OAT3: 277 pmol/106 cells/min
OAT4
  transport by OAT4: transported
  Vmax (pmol/106 cells/min) OAT4: 245 pmol/106 cells/min

## Cc1onc(-c2c(Cl)cccc2Cl)c1C(=O)N[C@@H]1C(=O)N2[C@@H]1SC(C)(C)[C@@H]2C(=O)O [Dicloxacillin]
OATP1B1
  transport by OATP1B1: transported
OATP1B1; uptake, 2 min
  Vmax (pmol/106 cells/min) OATP1B1: 15.9 pmol/106 cells/min
OAT3
  transport by OAT3: transported
  Vmax (pmol/106 cells/min) OAT3: 296 pmol/106 cells/min
OAT4
  transport by OAT4: transported
  Vmax (pmol/106 cells/min) OAT4: 239 pmol/106 cells/min
